Measurements: patent US20230241126A1 (priority 2022, published 2023)

Columns and labels:
SARS-CoV-2 = assay type: cell-based; details: 1-hour contact time at 22 ± 2° C.; versus virus control titer 5.0

## CCO [Ethanol]
SARS-CoV-2
  LRV (log reduction value): >4.3
Vero 76 cells
  Toxicity (highest dilution of the endpoint titer where full (80-100%) cytotoxicity was observed): None
